Experimental data reported in ChEMBL document CHEMBL3046640, “Synthesis and antimicrobial activity of bischalcone derivatives” (2013).
Values after ≈ are worked out from the molar mass of the structure shown. Active and inactive are the calls of the source. The calls are words filed in the database; no cut-off is given here.

Columns and labels:
Format in all cases: functional
Candida albicans [1] = test: Antifungal activity against Candida albicans ATCC 10231 assessed as growth inhibition after 48 hr by broth dilution method
Pseudomonas aeruginosa [2] = test: Antibacterial activity against Pseudomonas aeruginosa ATCC 27853 assessed as growth inhibition at 100 ug/mL after 24 hr by cup-plate method; details: ATCC 27853, 24 h, read-out: DIZ
Candida albicans [3] = test: Antifungal activity against Candida albicans ATCC 10231 assessed as growth inhibition at 100 ug/mL after 3 to 4 days by agar diffusion method; details: read-out: DIZ
Escherichia coli [4] = test: Antibacterial activity against Escherichia coli ATCC 25922 assessed as growth inhibition at 100 ug/mL after 24 hr by cup-plate method; details: ATCC 25922, 24 h, read-out: DIZ
Pseudomonas aeruginosa [5] = test: Antibacterial activity against Pseudomonas aeruginosa ATCC 27853 assessed as growth inhibition after 24 hr by broth dilution method
Rhizopus arrhizus [6] = test: Antifungal activity against Rhizopus oryzae MTCC 262 assessed as growth inhibition after 48 hr by broth dilution method
Staphylococcus aureus [7] = test: Antibacterial activity against Staphylococcus aureus ATCC 25923 assessed as growth inhibition at 100 ug/mL after 24 hr by cup-plate method; details: ATCC 25923, 24 h, read-out: DIZ
Rhizopus arrhizus [8] = test: Antifungal activity against Rhizopus oryzae MTCC 262 assessed as growth inhibition at 100 ug/mL after 3 to 4 days by agar diffusion method; details: read-out: DIZ
Escherichia coli [9] = test: Antibacterial activity against Escherichia coli ATCC 25922 assessed as growth inhibition after 24 hr by broth dilution method
Aspergillus niger [10] = test: Antifungal activity against Aspergillus niger ATCC 16404 assessed as growth inhibition after 48 hr by broth dilution method
Staphylococcus aureus [11] = test: Antibacterial activity against Staphylococcus aureus ATCC 25923 assessed as growth inhibition after 24 hr by broth dilution method
Aspergillus niger [12] = test: Antifungal activity against Aspergillus niger ATCC 16404 assessed as growth inhibition at 100 ug/mL after 3 to 4 days by agar diffusion method; details: read-out: DIZ

Structure (SMILES)	MIC (Candida albicans [1]; ATCC 10231, 48 h)	MIC (Pseudomonas aeruginosa [5]; ATCC 27853, 24 h)	MIC (Rhizopus arrhizus [6]; MTCC 262, 48 h)	MIC (Escherichia coli [9]; ATCC 25922, 24 h)	MIC (Aspergillus niger [10]; ATCC 16404, 48 h)	MIC (Staphylococcus aureus [11]; ATCC 25923, 24 h)	MIC (Pseudomonas aeruginosa [5])	MIC (Aspergillus niger [10])	MIC (Rhizopus arrhizus [6])	MIC (Escherichia coli [9])	MIC (Candida albicans [1])	MIC (Staphylococcus aureus [11])	zone of inhibition at 100 µg/mL (Pseudomonas aeruginosa [2])	zone of inhibition at 100 µg/mL (Candida albicans [3])	zone of inhibition at 100 µg/mL (Escherichia coli [4])	zone of inhibition at 100 µg/mL (Staphylococcus aureus [7])	zone of inhibition at 100 µg/mL (Rhizopus arrhizus [8])	zone of inhibition at 100 µg/mL (Aspergillus niger [12])
O=c1cc(-c2ccc(Cl)cc2)oc2cc3oc(-c4ccc(Cl)cc4)cc(=O)c3cc12	12.5 µg/mL (≈ 28.7 µM)	25 µg/mL (≈ 57.4 µM)	25 µg/mL (≈ 57.4 µM)	25 µg/mL (≈ 57.4 µM)	50 µg/mL (≈ 115 µM)	12.5 µg/mL (≈ 28.7 µM)	–	–	–	–	–	–	15 mm	15 mm	15 mm	15 mm	15 mm	10 mm
CC(=O)c1cc(C(C)=O)c(OC(=O)c2ccc(Cl)cc2)cc1OC(=O)c1ccc(Cl)cc1	> 100 µg/mL	–	> 100 µg/mL	> 100 µg/mL	–	> 100 µg/mL	inactive	inactive	–	–	–	–	< 5 mm	5 mm	5 mm	5 mm	5 mm	< 5 mm
O=c1cc(-c2ccco2)oc2cc3oc(-c4ccco4)cc(=O)c3cc12	12.5 µg/mL (≈ 36.1 µM)	12.5 µg/mL (≈ 36.1 µM)	> 100 µg/mL	25 µg/mL (≈ 72.2 µM)	50 µg/mL (≈ 144 µM)	25 µg/mL (≈ 72.2 µM)	–	–	–	–	–	–	15 mm	15 mm	15 mm	15 mm	5 mm	10 mm
O=c1cc(-c2cccc(Cl)c2)oc2cc3oc(-c4cccc(Cl)c4)cc(=O)c3cc12	50 µg/mL (≈ 115 µM)	25 µg/mL (≈ 57.4 µM)	50 µg/mL (≈ 115 µM)	50 µg/mL (≈ 115 µM)	25 µg/mL (≈ 57.4 µM)	25 µg/mL (≈ 57.4 µM)	–	–	–	–	–	–	15 mm	10 mm	10 mm	15 mm	10 mm	15 mm
COC1=CC(=O)C[C@@H](C)[C@]12Oc1c(Cl)c(OC)cc(OC)c1C2=O [GRISEOFULVIN]	6.25 µg/mL (≈ 17.7 µM)	–	6.25 µg/mL (≈ 17.7 µM)	–	6.25 µg/mL (≈ 17.7 µM)	–	–	–	–	–	–	–	–	> 20 mm	–	–	> 20 mm	> 20 mm
CC(=O)c1cc(C(C)=O)c(OC(=O)c2ccccc2C)cc1OC(=O)c1ccccc1C	–	–	–	–	–	–	inactive	inactive	inactive	inactive	inactive	inactive	< 5 mm	< 5 mm	< 5 mm	< 5 mm	< 5 mm	< 5 mm
CC(=O)c1cc(C(C)=O)c(OC(=O)c2cccc(Cl)c2)cc1OC(=O)c1cccc(Cl)c1	–	–	–	–	–	> 100 µg/mL	inactive	inactive	inactive	inactive	inactive	–	< 5 mm	< 5 mm	< 5 mm	5 mm	< 5 mm	< 5 mm
O=C(O)c1cn(C2CC2)c2cc(N3CCNCC3)c(F)cc2c1=O [CIPROFLOXACIN]	–	–	–	–	–	–	–	–	–	–	–	–	> 20 mm	–	> 20 mm	> 20 mm	–	–
O=c1c(O)c(-c2ccc(O)c(O)c2)oc2cc(O)cc(O)c12 [QUERCETIN]	> 100 µg/mL	–	–	> 100 µg/mL	–	> 100 µg/mL	–	–	–	–	–	–	–	–	–	–	–	–

Further lines, with some results ahead:

MIC (Candida albicans [1]; ATCC 10231, 48 h)	MIC (Pseudomonas aeruginosa [5]; ATCC 27853, 24 h)	MIC (Rhizopus arrhizus [6]; MTCC 262, 48 h)	MIC (Escherichia coli [9]; ATCC 25922, 24 h)	MIC (Aspergillus niger [10]; ATCC 16404, 48 h)	MIC (Staphylococcus aureus [11]; ATCC 25923, 24 h)	MIC (Pseudomonas aeruginosa [5])	MIC (Aspergillus niger [10])	MIC (Rhizopus arrhizus [6])	MIC (Escherichia coli [9])	MIC (Candida albicans [1])	MIC (Staphylococcus aureus [11])	Structure (SMILES)	zone of inhibition at 100 µg/mL (Pseudomonas aeruginosa [2])	zone of inhibition at 100 µg/mL (Candida albicans [3])	zone of inhibition at 100 µg/mL (Escherichia coli [4])	zone of inhibition at 100 µg/mL (Staphylococcus aureus [7])	zone of inhibition at 100 µg/mL (Rhizopus arrhizus [8])	zone of inhibition at 100 µg/mL (Aspergillus niger [12])
> 100 µg/mL	> 100 µg/mL	–	–	–	> 100 µg/mL	–	inactive	inactive	inactive	–	–	Cc1ccccc1/C=C/C(=O)c1cc(C(=O)/C=C/c2ccccc2C)c(O)cc1O	5 mm	5 mm	< 5 mm	5 mm	< 5 mm	< 5 mm
25 µg/mL (≈ 45.4 µM)	> 100 µg/mL	50 µg/mL (≈ 90.8 µM)	50 µg/mL (≈ 90.8 µM)	50 µg/mL (≈ 90.8 µM)	50 µg/mL (≈ 90.8 µM)	–	–	–	–	–	–	COc1cc(/C=C/C(=O)c2cc(C(=O)/C=C/c3cc(OC)c(OC)c(OC)c3)c(O)cc2O)cc(OC)c1OC	5 mm	15 mm	10 mm	10 mm	10 mm	10 mm
50 µg/mL (≈ 114 µM)	50 µg/mL (≈ 114 µM)	50 µg/mL (≈ 114 µM)	–	> 100 µg/mL	> 100 µg/mL	–	–	–	inactive	–	–	O=C(/C=C/c1cccc(Cl)c1)c1cc(C(=O)/C=C/c2cccc(Cl)c2)c(O)cc1O	10 mm	10 mm	< 5 mm	5 mm	10 mm	5 mm
–	> 100 µg/mL	–	–	> 100 µg/mL	–	–	–	inactive	inactive	inactive	inactive	COc1ccccc1C(=O)Oc1cc(OC(=O)c2ccccc2OC)c(C(C)=O)cc1C(C)=O	5 mm	< 5 mm	< 5 mm	< 5 mm	< 5 mm	5 mm
12.5 µg/mL (≈ 35.7 µM)	12.5 µg/mL (≈ 35.7 µM)	50 µg/mL (≈ 143 µM)	12.5 µg/mL (≈ 35.7 µM)	25 µg/mL (≈ 71.4 µM)	25 µg/mL (≈ 71.4 µM)	–	–	–	–	–	–	O=C(/C=C/c1ccco1)c1cc(C(=O)/C=C/c2ccco2)c(O)cc1O	15 mm	15 mm	15 mm	15 mm	10 mm	15 mm
50 µg/mL (≈ 132 µM)	–	> 100 µg/mL	–	50 µg/mL (≈ 132 µM)	50 µg/mL (≈ 132 µM)	inactive	–	–	inactive	–	–	COc1cc(OC)c(C(=O)/C=C/c2ccco2)cc1C(=O)/C=C/c1ccco1	< 5 mm	10 mm	< 5 mm	10 mm	5 mm	10 mm
> 100 µg/mL	–	–	50 µg/mL (≈ 96.4 µM)	> 100 µg/mL	> 100 µg/mL	inactive	–	inactive	–	–	–	COc1ccc(/C=C/C(=O)c2cc(C(=O)/C=C/c3ccc(OC)c(OC)c3)c(OC)cc2OC)cc1OC	< 5 mm	5 mm	10 mm	5 mm	< 5 mm	5 mm
–	> 100 µg/mL	–	–	> 100 µg/mL	–	–	–	inactive	inactive	inactive	inactive	CCN(CC)c1ccc(/C=C/C(=O)c2cc(C(=O)/C=C/c3ccc(N(CC)CC)cc3)c(OC)cc2OC)cc1	5 mm	< 5 mm	< 5 mm	< 5 mm	< 5 mm	5 mm
